# Legend:
# [1] = test system: U44069 induced pulmonary hypertension; format: in vivo, sheep
# Source text: (§1) The efficacy of benzindene prostaglandins, such as UT-15, for treating pulmonary hypertension can be assessed by determining the hemodynamics associated with pulmonary hypertension. In particular, measurements of pulmonary arterial pressure (PPA), left atrial pressure (PLA), central venous pressure (PCV), systemic arterial pressure (PSYS), heart rate (HR), and cardiac output (CO) are useful in determining the effects of benzindene prostaglandins delivered by inhalation or parenterally.
# (§2) Heart rate was determined by measuring the time (seconds) required for 25 heart beats to occur (t25) as indicated by the pulsations on the blood flow meter; the beats per minute (BPM) were calculated by the following equation: […]
# (§3) All pressure may be monitored by commercially available transducers, such as Model 1290A HEWLETT PACKARD™ transducer (Andover, Mass.), which is attached to VALIDYNE CD19A Carrier Dmod. Amplifiers (Northridge, Calif.). Cardiac output may be measured by a Transonic Systems T101 Ultrasonic Bloodflow Meter (Ithaca, N.Y.). The pressure and blood flow signals may be recorded on ASTROMED MT-9500 Stripchart Recorder (West Warwick, R.I.) and digitally recorded with a personal computer using Easy Data Acquisition Software (Nashville, Tenn.).
# Sheep were used as the animal model of choice for these experiments for a number of reasons. First is the docile nature of sheep. They will stand quietly in metabolic cages without having to utilize tranquilizing drugs, which have the potential to complicate experimental results. Second, sheep are large enough to allow direct measurement of CO, PPA, PLA, PCV, and PSYS. Sheep are also large enough to allow direct aerosolization of substances into the lung via trachoestomy thereby preventing swallowing of drugs and thus eliminating a possible secondary route of administration of UT-15. Third, sheep can tolerate a great amount of instrumentation with little or no discomfort. Fourth, sheep have been utilized for several years as an animal model of pulmonary arterial hypertension and thus, there is a great amount of historical data with which to compare the results. The agent chosen to induce pulmonary arterial hypertension was a PGH2 analog, U44069 (9,11-dideoxy,9α,11α-epoxymethanoprostaglandin F2α). The reasons for using U44069 are that it is a very potent pulmonary vasoconstrictor, its characteristics are very similar to endogenously formed thromboxane A2, and it can be titrated to induce the desired degree of pulmonary vasoconstriction. U44069 was mixed with sterile normal saline immediately prior to being used and was protected from light by wrapping the solution with aluminum foil. The concentration of U44069 was adjusted such that a minimal flow rate of 0.8 ml per min was being infused into the sheep. This was done because more concentrated U44069 would have to be infused at very low rates and often causes “pulses” of U44069 due to the infusion characteristics of roller pumps. The U44069 pulses cause vasoconstriction “spikes” and thus would create induce a non-steady-state.
# Six yearling sheep (3 males, 3 females; 21-37 kg) were fasted 18-24 hours and initially anesthetized with a short acting barbiturate (thiopental) to allow intubation of the sheep. Halothane gas anesthesia (1.5-2.5%) was then used for the surgical procedures. Via a left thoracotomy, a Transonic blood flow probe was placed around the main pulmonary artery, silastic catheters placed in the main pulmonary artery and left atrium. After approximately 7 days the sheep were reanesthetized and the left carotid artery cannulated, a Cordis Introducer Sheath inserted in the left jugular vein, and a tracheotomy made. The sheep were allowed to recover for another 3-5 days prior to experimentation. […]
# sheep [2] = experiment: Intravenous and aerosolized UT-15 dose response effects on baseline hemodynamics; format: in vivo; details: baseline conditions, aerosolized, 250, 500, and 100 ng per kg per min
# sheep [3] = experiment: as above; format: in vivo; details: baseline conditions; for central venous pressure (PCV) relative to baseline / pulmonary arterial pressure (PPA) relative to baseline: any dose; for systemic arterial pressure (PSYS): any administration rate; for cardiac output (CO) relative to baseline: any delivery rate
# Source text: as §1, §2, §3
# Inhalation solutions were prepared by combining 1.25 grams of Sodium Citrate (Hydrous), 0.125 Citric Acid (Anhydrous), 0.05 grams of Sodium Hydroxide (NF/BP), 0.125 grams of UT-15, and approximately 250 ml of Water for Injection according to the following steps.
# Working solution was made by adding sterile saline to dilute the UT15 stock solution or placebo to the desired amount (depending on dose desired, weight of sheep, and duration of aerosolizing). This solution was then added to the nebulizer in volumes not exceeding 5 ml until entire amount was used.
# Six yearling sheep (3 males, 3 females; 21-37 kg) were fasted 18-24 hours and initially anesthetized with a short acting barbiturate (thiopental) to allow intubation of the sheep. Halothane gas anesthesia (1.5-2.5%) was then used for the surgical procedures. Via a left thoracotomy, a Transonic blood flow probe was placed around the main pulmonary artery, silastic catheters placed in the main pulmonary artery and left atrium. After approximately 7 days the sheep were reanesthetized and the left carotid artery cannulated, a Cordis Introducer Sheath inserted in the left jugular vein, and a tracheotomy made. The sheep were allowed to recover for another 3-5 days prior to experimentation. These sheep were used to allow measurement of pulmonary arterial pressure (PPA), left atrial pressure (PLA), central venous pressure (PCV), systemic arterial pressure (PSYS), heart rate (HR), and cardiac output (CO) after baseline measurements were made for a minimum of 30 minutes.
# Two separate experiments were conducted to determine the dose response effects of intravenously infused UT-15 on baseline hemodynamics and aerosolized UT-15 on baseline hemodynamics. For the infusion experimental protocol, after a 30 minute baseline was established, UT-15 was infused intravenously at 3 rates (250, 500 and 1000 ng per kg per min). In three sheep, the infusion rates lasted for 30 minutes each, and for the other three sheep, the infusions were for 60 minutes each.
# The aerosolized UT-15 protocol involved establishing a 30 minute baseline, then administering aerosolized UT-15 via a tracheostromy at rates of […] per kg of body weight per min and at an aerosolization rate of 0.28 ml/min. Again, three sheep were aerosolized for 30 minutes and the other three sheep were aerosolized for 60 minutes.
# blood platelets = details: cited from earlier work
# [4] = U44069 iv infusion alone, 1 ng per kg per min
compound,measurement,setting,value
"CCCCC[C@H](O)/C=C/C1C2COC(C2)C1C/C=C\CCCC(=O)O (stereo partly drawn) [U44069, 9,11-dideoxy,9α,11α-epoxymethanoprostaglandin F2α, reference compound]",left atrial pressure,[1]; [4],did not alter left atrial pressure significantly
same,pulmonary arterial pressure (PPA) relative to baseline,[1]; [4],significantly increased
same,pulmonary vascular resistance (PVR),[1]; [4],dramatic increase
"CCCCC[C@H](O)CC[C@@H]1[C@H]2Cc3cccc(OCC(=O)O)c3C[C@H]2C[C@H]1O [UT-15, 9-deoxy-2′,9-alpha-methano-3-oxa-4,5,6-trinor-3,7-(1′,3′-interphenylene)-13,14-dihydro-prostaglandin F1]",pulmonary vascular driving pressure (PPA minus PLA) versus baseline,sheep [2],significant
same,potency and efficacy in attenuating chemically induced pulmonary hypertension (increase in PVR),[1]; aerosolized UT-15 compared to intravascularly administered UT-15,greater potency and efficacy
same,central venous pressure,"[1]; during iv U44069, aerosol UT-15, only 500 ng per kg per min",different from the corresponding intravenous UT-15 infusion value
same,pulmonary arterial pressure (PPA),"[1]; during iv U44069, aerosolized UT-15, 500 and 1000 ng per kg per min",back to normal values
same,pulmonary vascular resistance (PVR) relative to baseline PVR,"[1]; during iv U44069, aerosolized UT-15, any of the three delivery rates",no significant difference
same,pulmonary arterial pressure (PPA) versus U44069 value,"[1]; during iv U44069, intravascular UT-15",decrease significantly
same,"pulmonary vascular resistance (PVR), U44069-induced increase","[1]; during iv U44069, intravenously infused UT-15, 500 and 1000 ng per kg per min",significantly attenuated
same,left atrial pressure versus U44069 value,"[1]; during iv U44069, intravenously infused UT-15, all three delivery rates",significant decrease
same,"peripheral effects (heart rate, cardiac output)",[1]; in vivo,no apparent peripheral effects
same,central venous pressure (PCV) relative to baseline,sheep [3]; aerosol,no statistical difference
same,pulmonary vascular resistance (PVR),"sheep [3]; aerosolized, all 3 delivery rates",significant decrease
same,systemic arterial pressure (PSYS),sheep [3]; aerosolized,no significant effect
same,cardiac output (CO) relative to baseline,sheep [3]; aerosolized,no significant changes
same,pulmonary arterial pressure (PPA) relative to baseline,"sheep [3]; aerosolized, not statistically different",general trend for PPA to decrease
same,left atrial pressure (PLA) relative to baseline,"sheep [3]; aerosolized, mean values increased",neither intravenous nor aerosolized UT-15 caused PLA to significantly change
same,pulmonary vascular resistance (PVR),sheep [3]; intravenous,no significant effect
same,systemic arterial pressure (PSYS),sheep [3]; intravenous,no significant effect
same,cardiac output (CO) relative to baseline,sheep [3]; intravenous,no significant changes
same,central venous pressure (PCV) relative to baseline,sheep [3]; intravenous,no statistical difference
same,pulmonary arterial pressure (PPA) relative to baseline,sheep [3]; intravenous,same effects
same,left atrial pressure (PLA) relative to baseline,"sheep [3]; intravenous, mean values decreased",neither intravenous nor aerosolized UT-15 caused PLA to significantly change
same,anti-aggregatory action on blood platelets,blood platelets,potent anti-aggregatory action

# From patent US6756033B2, “Method for delivering benzindene prostaglandins by inhalation” (United Therapeutics Corporation, priority 1999, dated 2004)
